Assay results published in a melting point compilation (Tetko et al.).

First: Cc1cc(NS(=O)(=O)C(F)(F)F)ccc1C(=O)O
Second: CCS(=O)(=O)Nc1ccc(S(=O)(=O)Cl)c(C)c1
The melting point of the first is higher: 169 to 171 °C for the first, 82 to 84 °C for the second.

First: O=C(NC1CC1)C1CCNCC1
Second: CC1CCc2sc(C(=O)NN)cc2C1 (stereo not drawn)
The melting point of the first is higher: 135 to 137 °C for the first, 122 to 124 °C for the second.

`O=[N+]([O-])c1ccc(N2CCNCC2)nc1` and `CC(C)(C(=O)O)c1ccc([N+](=O)[O-])cc1` cannot be ordered by melting point: 128 to 130 °C for the first, 129 to 131 °C for the second.

First: NC(=O)c1ccccc1Oc1ncccc1C(=O)O
Second: Cc1ccc(C(=O)c2ccccc2C(=O)O)cc1C
The melting point of the first is higher: 253 to 255 °C for the first, 166 to 168 °C for the second.

First: CS(=O)(=O)c1cc(S(=O)(=O)Cl)ccc1F
Second: CS(=O)(=O)c1cccc(NC(=O)CCl)c1
The melting point of the first is higher: 112 to 114 °C for the first, 104 to 106 °C for the second.

First: O=C(O)c1cc(S(=O)(=O)N2CCC2)ccc1Cl
Second: COc1ccc(S(=O)(=O)N2CCN(C)CC2)cc1N
The melting point of the first is higher: 172 to 174 °C for the first, 107 to 109 °C for the second.

First: O=C1NCc2ccccc2N1CCO
Second: CCCN1C(=O)CNc2ccccc21
The melting point of the first is higher: 107 to 109 °C for the first, 70 to 72 °C for the second.

First: CNC(=O)NN
Second: CNC(=O)c1ccc(Cl)nn1
The melting point of the first is lower: 103 to 105 °C for the first, 170 to 172 °C for the second.

First: Cc1cc(C)c2cc(C(=O)O)[nH]c2c1C
Second: Cc1c(C(=O)O)c(=O)oc2cc(F)ccc12
The melting point of the first is higher: 227 to 229 °C for the first, 169 to 171 °C for the second.

Compared with `Clc1cccc(-c2ccccn2)n1`, `Brc1ncc(-c2ccccc2)s1` is lower in melting point: 62 to 64 °C for the first, 55 to 57 °C for the second.

First: COc1ccc(C(=O)N2CCOCC2)cc1N
Second: COc1ccc(C(=O)N2CCC(C(=O)O)CC2)c2ccccc12
The melting point of the first is lower: 150 to 152 °C for the first, 254 to 257 °C for the second.

First: CC(C)(C)OC(=O)N1CCC(O)(Cc2cccc(Cl)c2)C1 (stereo not drawn)
Second: COc1ccccc1CC(C)(C)C(=O)O
The melting point of the first is higher: 109 to 111 °C for the first, 44 to 46 °C for the second.

First: Cc1nc(NC(=O)OC(C)(C)C)sc1C(N)=O
Second: Cc1sc2nc(S)[nH]c(=O)c2c1C
The melting point of the first is lower: 279 to 281 °C for the first, 328 to 330 °C for the second.

First: COC(=O)c1cc(OC)c(OC(F)F)cc1N
Second: O=C(O)c1cc(OC(F)F)cc(OC(F)F)c1
The melting point of the first is higher: 89 to 91 °C for the first, 79 to 81 °C for the second.

Compared with `CCOC(=O)c1cn2c(n1)NCCC2`, `Cc1n[nH]cc1N` is lower in melting point: 171 to 173 °C for the first, 93 to 95 °C for the second.

First: COC(=O)c1nc(Cc2ccccc2Cl)n2ccccc12
Second: O=Cc1c(Cl)cccc1OCc1ccccc1Cl
The melting point of the first is higher: 131 to 133 °C for the first, 92 to 94 °C for the second.

First: N#CCCOc1ccc(Br)cc1
Second: COc1ccc(CC#N)c(Cl)c1OC
The melting point of the first is higher: 76 to 78 °C for the first, 55 to 57 °C for the second.

Compared with `NCc1cccc(N)n1`, `Cc1n[nH]c(-c2ccccc2N)n1` is higher in melting point: 93 to 95 °C for the first, 153 to 155 °C for the second.

First: CC(=O)N(C)CCC(N)=S
Second: CCS(=O)(=O)NCCC(=O)O
The melting point of the first is higher: 109 to 111 °C for the first, 63 to 65 °C for the second.

Compared with `CCc1[nH]nc(N)c1-c1ccc2c(c1)OCO2`, `O=C(c1ccc(Cl)cc1)c1ccc2c(c1)OCO2` is higher in melting point: 97 to 99 °C for the first, 128 to 130 °C for the second.

Compared with `COc1ccc(-c2nnc(S)o2)cc1OC`, `Cc1ccc(-c2ncco2)cc1N` is lower in melting point: 251 to 253 °C for the first, 89 to 91 °C for the second.

First: C#CCN1CCNC1=O
Second: O=C(O)CCc1nc2ccccc2c(=O)n1C1CC1
The melting point of the first is lower: 119 to 121 °C for the first, 183 to 185 °C for the second.

Compared with `Sc1ncccc1Br`, `Cc1cc(C(=O)O)c(C)n1-c1ccccn1` is lower in melting point: 199 to 201 °C for the first, 187 to 189 °C for the second.

First: COCCNc1cc2nc[nH]c(=O)c2cc1[N+](=O)[O-]
Second: Cc1ccc(Br)c2c1NC(=O)C2=O
The melting point of the first is higher: 259 to 261 °C for the first, 239 to 241 °C for the second.

First: CCC(C(=O)O)c1cccc(C(F)(F)F)c1 (stereo not drawn)
Second: Cc1cccc(-n2nnc(C(=O)O)c2C)c1
The melting point of the first is lower: 41 to 43 °C for the first, 157 to 159 °C for the second.

First: CSc1ccc(C(=O)O)cn1
Second: Cc1cc(Oc2ccc(C(=O)O)cn2)ccc1C(C)C
The melting point of the first is higher: 182 to 184 °C for the first, 122 to 124 °C for the second.

First: O=C1CCC2(C(=O)O)Sc3ccccc3N12 (stereo not drawn)
Second: O=S1(=O)NC=Nc2ccccc21
The melting point of the first is higher: 225 to 227 °C for the first, 222 to 224 °C for the second.

Compared with `CN(C)C(=O)Nc1ccc(Cl)c(C(=O)O)c1`, `CC(C)(C)N1C(=O)CC(C(=O)O)C1c1ccc(Cl)c(F)c1` (stereo not drawn) is higher in melting point: 214 to 216 °C for the first, 249 to 251 °C for the second.

Compared with `COc1cc(CCl)ccc1SC`, `CN(c1ccc(CN)cc1)S(C)(=O)=O` is lower in melting point: 78 to 80 °C for the first, 46 to 48 °C for the second.

Compared with `NC(=O)c1ccc(Oc2ccc(C(=O)O)cc2)cc1`, `COc1ccc(C(=O)C(Cl)c2ccc(OC)cc2)cc1` (stereo not drawn) is lower in melting point: 289 to 291 °C for the first, 69 to 71 °C for the second.

Compared with `COC(=O)c1nc2ncc3c(n2n1)C(=O)OCC3`, `Cc1nc2ncnn2c(C)c1CCC(=O)O` is higher in melting point: 197 to 199 °C for the first, 224 to 226 °C for the second.

First: Nc1cc(-c2ccccc2I)no1
Second: O=c1nncc2[nH]cccc1-2
The melting point of the first is lower: 120 to 122 °C for the first, 269 to 271 °C for the second.

Compared with `CC(C)Oc1ncc(C(=O)O)cc1Cl`, `Nc1c(F)ccc(Br)c1C(=O)O` is lower in melting point: 171 to 173 °C for the first, 128 to 130 °C for the second.

Compared with `NNC(=O)Cc1ccc2ccccc2c1`, `Cc1ccc(S(=O)(=O)CCC(=O)O)cc1` is lower in melting point: 189 to 191 °C for the first, 108 to 110 °C for the second.

First: Cc1ccc(Cl)c2c1C(=O)C(=O)N2
Second: Nc1sc2c(c1-c1nc3ccccc3s1)CCC2
The melting point of the first is higher: 209 to 211 °C for the first, 135 to 137 °C for the second.

First: CC(N)C(O)c1ccc(F)cc1 (stereo not drawn)
Second: CC(C)c1ccc(-c2nc(CSc3nnc(N)[nH]3)cs2)cc1
The melting point of the first is lower: 87 to 89 °C for the first, 156 to 158 °C for the second.

Compound `Nc1ncon1` has a melting point of 104 to 106 °C.
